The target of the test is T1, Tyk2 (Homo sapiens, UniProt P29597).
T1 construct: 450 ng/ml TYK2 KD (Cama Biosciences 08-147 Lot 06CBS-3022D); purchased Cama Biosciences (so in the source)
T1 sequence (P29597 897-1176 limits assumed): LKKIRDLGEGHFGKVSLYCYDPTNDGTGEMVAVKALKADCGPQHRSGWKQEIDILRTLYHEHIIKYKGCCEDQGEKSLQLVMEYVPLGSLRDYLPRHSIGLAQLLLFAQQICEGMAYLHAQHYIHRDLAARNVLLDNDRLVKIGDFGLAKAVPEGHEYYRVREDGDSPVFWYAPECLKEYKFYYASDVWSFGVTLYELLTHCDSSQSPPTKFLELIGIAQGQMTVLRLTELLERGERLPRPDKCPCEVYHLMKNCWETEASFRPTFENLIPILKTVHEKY
Kind of test: Tyk2 HTRF Assay. It is filed as biochemical. On the procedure: The following is an example of an assay that can be used to determine the Tyk2 inhibitory activity of a test compound.
25 μl/well DMSO is added to Columns 2 and 14 (except 28.5 μl is added to well P14 of Greiner 384-well polypropylene plate). 20 μl/well DMSO is added to all remaining wells.
5 mM compound solutions are added by addition of 5 μl of 30 mM compound to 25 μl DMSO in Columns 2 and 14 of plate. 1.5 mM reference control is prepared by addition of 1.5 μl of 30 mM JAK3 Inhibitor VI to 28.5 μl DMSO in Well P14.
Serial dilution is then performed by the following steps: (i) Compounds in Column 2 are mixed by pipetting 20 μl up and down 6X; (ii) 10 μl/well compounds in DMSO are transferred from one column to the next column for Columns 2-11; (iii) wells are mixed by pipetting 20 μl up and down 6×; (iv) tips are washed 3×25 μl DMSO, 2×25 μl next DMSO; (v) steps i-iv repeated for Columns 14-23.
The following buffers are prepared:
Assay Buffer: 50 mM HEPES pH 7.6; 1 mM DTT; 10 mM MgCl2; 0.01% Triton X100; 0.01% BSA; and 0.1 mM EDTA.
Kinase in Assay Buffer: 450 ng/ml TYK2 KD (Cama Biosciences 08-147 Lot 06CBS-3022D).
Substrate/Detection Mixture (1×ATP) in Assay Buffer: 188 nM DyLight 647-Streptavidin (Pierce 21824); 5 μM Biotin-EQEDEPEGDYFEWLE (Lyn Substrate Peptide); 750 ng/ml Eu-anti-phospho-Tyrosine (PerkinElmer AD0069); 62.5 μM ATP; 80 nM Substrate Peptide (American Peptide Company 332722).
Substrate/Detection Mixture (20×ATP) in Assay Buffer: 188 nM DyLight 647-Streptavidin; 5 μM Biotin-EQEDEPEGDYFEWLE; 750 ng/ml Eu-anti-phospho-Tyrosine; 1250 μM ATP; 80 nM Substrate Peptide.
14.5 μl/well Enzyme Mix or Dilution Buffer (Background Controls) is added to Costar 384 well black plates.
Compound addition and mixture is performed by the following steps: (i) 0.5 μl/well DMSO/compounds in DMSO is transferred from Greiner 384-well polypropylene plate to a plate containing 14.5 μl/well Enzyme Mix and Dilution Buffer; (ii) mixed by pipetting 10 μl up and down 4×; (iii) tips are washed 4×10 μl in DMSO, 2×20 μl in other DMSO; (iv) steps i-iii are repeated until all plates are completed.
10 μl/well Substrate/Detection Mixtures is added and incubated at room temperature 2 hours (on shaker for first 2+ minutes).
10 μl/well 50 mM EDTA/0.01% Triton X100 is added and incubated >15 minutes at room temperature (on shaker for first 2+ minutes).
Plates are read at 665 nm and 620 nm emission on Analyst GT protocol HTRF_SP_A (Counts= 665/620×10000).
For orientation: Time-resolved FRET reads energy transfer from a long-lived donor to a nearby acceptor.

For the compound `NC(=O)c1nc(-c2cccnc2)nc2c1[nH]c(=O)n2[C@H]1CC[C@H](O)CC1` [Compound 50, 9-(trans-4-Hydroxycyclohexyl)-8-oxo-2-(pyridin-3-yl)-8,9-dihydro-7H-purine-6-carboxamide], the IC50 lay within 20.1 to 30 µM.

Usually IC50 stands for the concentration that gives 50% inhibition. Read a low IC50 as inhibition by little substance.
